Laboratory results from patent US20250161285A1, “BACTERIAL BIOFILM INHIBITORS” (THE RESEARCH INSTITUTE AT NATIONWIDE CHILDREN'S HOSPITAL, priority 2022, published 2025).

Assays:
[1] = system: S. Typhimurium ATCC 14028 (JSG210) biofilms; test: Biofilm inhibition assay (crystal violet staining); format: cell-based, Salmonella enterica serovar Typhimurium; conditions: for IC50: inhibition of S. Typhimurium biofilm formation, compound present 24 h, crystal violet OD570, mean ± standard deviation
Experimental: Inhibition of biofilm formation is assessed by growing bacteria in a 96-well plate in the absence (control) or presence of test compounds. After 24 hours, the wells are washed to remove planktonic bacteria, and the remaining surface attached bacteria (biofilm) are stained with crystal violet (CV). The wells are then washed again to remove excess CV, and the remaining CV is solubilized with a solution of acetic acid and then quantified by spectrophotometry at 570 nm. A dose response curve is then constructed from which an IC50 value is determined.
(§1) Salmonella biofilm growth and crystal violet staining. […] For biofilm assays, individual bacterial colonies were picked and used to inoculate LB broth for overnight liquid cultures, which were grown at 37° C. with aeration using a rotating drum. […] Biofilm plates were then submerged in dH2O to wash away any remaining non-adherent bacteria and heat fixed (1h, 60° C.). Biofilms were then stained with a 33% crystal violet solution (6 mL PBS, 3.3 mL crystal violet, 333 μL methanol, 333 μL isopropanol) for 5 min. and washed twice by submerging in dH2O before releasing the bound dye with 33% glacial acetic acid. Biofilm growth was then quantified by measuring the optical density of the solubilized dye at 570 nm using a spectrophotometer (Molecular Devices, SpectraMax M5).
(§2) Biofilm Inhibition and Dispersion Assays and IC50/EC50 Determination. […] Biofilms were then grown as described above for a total of 24 h prior to CV staining. […] Biofilms were then incubated for an additional 24 h in the presence of compounds prior to CV staining. IC50/EC50 values were calculated by plotting normalized compound activity (percent biofilm formed and percent remaining, respectively) as a function of log10 compound concentration and fitting a dose response curve (log[inhibitor] vs. normalized response, variable slope).

[2] = system: S. Typhimurium ATCC 14028 (JSG210) biofilms; test: Biofilm dispersion assay on pre-formed biofilms (crystal violet staining); format: cell-based, Salmonella enterica serovar Typhimurium; conditions: 50% dispersion of biofilms established 24 h, then 24 h with compound, crystal violet OD570; mean ± standard deviation
Experimental: as §1, §2

| Compound | IC50 [1] [µM] | EC50 [2] [µM] | fold improvement of IC50 versus comparator ([1]; 6a vs 4c, 6b vs 4d, 6g vs 4c and 4d, 8i vs 8b) |
| --- | --- | --- | --- |
| CN(Cc1ccsc1)CC1CCN(Cc2ccc(Cl)cc2)CC1 [Compound 7k] | 5.9 ± 2.8 | 934 ± 26 |  |
| CN(Cc1ccsc1)CC1CCN(Cc2cccc(Cl)c2Cl)CC1 [Compound 7r] | 2.7 ± 1.4 | 70 ± 8 |  |
| CN(Cc1cccc(Cl)c1Cl)CC1CCN(CCc2ccccc2F)CC1 [Compound 3.1l] | 5.6 | 43 |  |
| CN(Cc1ccsc1)CC1CCN(CCc2cccc(-c3ccccc3)c2)CC1 [Compound 8i] | 1.8 | 31 ± 4 | two-fold |
| CN(Cc1ccccc1F)CC1CCN(CCc2ccccc2F)CC1 [Compound 3.1c] | 14.9 | > 75 |  |
| CN(Cc1ccsc1)CC1CCN(CCc2cc(Cl)cc(Cl)c2)CC1 [Compound 6e] | 1.6 | 45 |  |
| CN(Cc1ccsc1)CC1CCN(Cc2ccccc2Br)CC1 [Compound 7f] | 4.9 ± 0.8 | 79 ± 3 |  |
| Cc1ccccc1CN(C)CC1CCN(CCc2ccccc2F)CC1 [Compound 3.1b] | 4.4 | > 75 |  |
| CN(Cc1ccccc1I)CC1CCN(CCc2ccc(Cl)c(Cl)c2)CC1 [Compound 3.2d] | 3.4 | 26 |  |
| CN(Cc1cccc(Cl)c1)CC1CCN(CCc2ccc(Cl)c(Cl)c2)CC1 [Compound 3.2f] | 2.3 | 21 |  |
| CN(Cc1ccsc1)CC1CCN(CCCc2ccccc2Cl)CC1 [Compound 6m] | 5.4 ± 1.2 | 59 ± 4 |  |
| CN(Cc1ccccc1Cl)CC1CCN(CCc2ccccc2F)CC1 [Compound 3.1d] | 6.3 | > 75 |  |
| CN(Cc1ccsc1)CC1CCN(Cc2ccc(F)c(F)c2)CC1 [Compound 7o] | 7.2 ± 1.8 | 3800 ± 204 |  |
| CN(Cc1ccccc1)CC1CCN(CCc2ccc(Cl)c(Cl)c2)CC1 [Compound 3.2a] | 0.59 | 35 |  |
| CN(Cc1ccsc1)CC1CCN(Cc2cccc(I)c2)CC1 [Compound 8e] | 10 ± 4.5 | 92 ± 3 |  |
| CN(Cc1ccccc1)CC1CCN(CCc2ccc(Cl)cc2Cl)CC1 [Compound 3.3a] | 4.3 ± 2.1 | 11 ± 7 |  |

| Compound | IC50 [1] [µM] | EC50 [2] [µM] | fold improvement of IC50 versus comparator ([1]; 6a vs 4c, 6b vs 4d, 6g vs 4c and 4d, 8i vs 8b) |
| --- | --- | --- | --- |
| CN(Cc1ccsc1)CC1CCN(Cc2cccc(F)c2F)CC1 [Compound 7t] | 146 | 870 ± 79 |  |
| CN(Cc1ccccc1I)CC1CCN(CCc2ccccc2F)CC1 [Compound 3.1f] | 4.4 | 53 |  |
| CN(Cc1ccsc1)CC1CCN(Cc2cc(F)cc(F)c2)CC1 [Compound 7m] | 14.2 ± 1.7 | > 12000 |  |
| CN(Cc1ccsc1)CC1CCN(CCc2cccc3ccccc23)CC1 [Compound 8k] | 2.5 | 28 ± 5 |  |
| CN(Cc1ccsc1)CC1CCN(Cc2cc(Cl)ccc2Cl)CC1 [Compound 7p] | 15.8 ± 1.4 | 196 ± 27 |  |
| CN(Cc1ccsc1)CC1CCN(CCc2ccccc2C(F)(F)F)CC1 [Compound 7e] | 12.7 ± 4.1 | 60 ± 2 |  |
| CN(Cc1ccsc1)CC1CCN(Cc2ccccc2C(F)(F)F)CC1 [Compound 7u] | 20.9 | 140 ± 39 |  |
| CN(Cc1ccsc1)CC1CCN(Cc2cccc(Br)c2)CC1 [Compound 7i] | 6.5 ± 2.9 | 142 ± 9 |  |
| CN(Cc1ccccc1I)CC1CCN(CCc2ccc(Cl)cc2Cl)CC1 [Compound 3.3d] | 10.1 ± 4.5 | > 50 |  |
| CN(Cc1ccsc1)CC1CCN(CCc2cccc(Br)c2)CC1 [Compound 6c] | 3.6 | 83 ± 6 |  |
| CN(Cc1ccsc1)CC1CCN(Cc2ccc(F)cc2)CC1 [Compound 7j] | 12.9 ± 1.4 | 443 ± 52 |  |
| CN(Cc1ccsc1)CC1CCN(Cc2c(F)cccc2F)CC1 [Compound 7n] | > 200 | > 12000 |  |
| CN(Cc1ccsc1)CC1CCN(Cc2ccc(I)cc2)CC1 [Compound 8f] | 5.7 ± 2.9 | 77 ± 3 |  |
| CN(Cc1ccsc1)CC1CCN(CCc2ccc(I)cc2)CC1 [Compound 8c] | 2.6 | 89 ± 10 |  |
| CN(Cc1ccsc1)CC1CCN(CCc2ccccc2Br)CC1 [Compound 4b] | 7.2 ± 1.6 | 308 ± 11 |  |
| CN(Cc1ccsc1)CC1CCN(CCc2ccc(Cl)c(Cl)c2)CC1 [Compound 7a] | 1.4 | 45 ± 2 |  |
